Measurements reported in patent publication US20240116985A1, “STAPLED PEPTIDES AND METHODS THEREOF” (priority 2020, published 2024).
≈ marks a conversion by molar mass, not a printed value. Where two headings read alike, the source gives them in different places.

What was measured:
[1] = target: T1, full-length beta-Catenin (Uniprot ID P35222) (Homo sapiens, UniProt P35222); assay: Fluorescence polarization IC50 (beta-catenin / 5FAM-TCF4 10-53 competition); format: binding; settings: fluorescence polarization
T1 construct: 10 nM full-length beta-Catenin (Uniprot ID P35222)
T1 sequence (P35222 1-781): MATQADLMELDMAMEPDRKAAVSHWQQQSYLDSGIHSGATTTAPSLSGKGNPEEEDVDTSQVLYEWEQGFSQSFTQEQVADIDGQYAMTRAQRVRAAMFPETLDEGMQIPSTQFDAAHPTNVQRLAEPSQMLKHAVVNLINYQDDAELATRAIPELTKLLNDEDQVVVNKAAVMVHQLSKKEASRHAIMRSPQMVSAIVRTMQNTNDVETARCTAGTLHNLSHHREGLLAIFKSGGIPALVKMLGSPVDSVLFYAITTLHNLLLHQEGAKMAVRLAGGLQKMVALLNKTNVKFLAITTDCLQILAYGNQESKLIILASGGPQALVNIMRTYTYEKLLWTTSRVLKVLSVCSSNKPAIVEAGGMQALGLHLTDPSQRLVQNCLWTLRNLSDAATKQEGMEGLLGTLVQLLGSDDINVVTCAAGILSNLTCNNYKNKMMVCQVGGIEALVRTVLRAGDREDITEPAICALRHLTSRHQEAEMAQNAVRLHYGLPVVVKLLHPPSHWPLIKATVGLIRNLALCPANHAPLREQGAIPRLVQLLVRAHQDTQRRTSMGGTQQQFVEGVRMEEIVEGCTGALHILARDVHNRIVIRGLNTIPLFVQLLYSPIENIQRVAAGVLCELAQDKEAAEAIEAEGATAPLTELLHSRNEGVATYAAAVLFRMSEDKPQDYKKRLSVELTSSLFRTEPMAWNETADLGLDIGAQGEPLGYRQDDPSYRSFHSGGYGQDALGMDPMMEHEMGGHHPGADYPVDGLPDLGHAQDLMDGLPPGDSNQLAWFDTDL

[2] = Solubility in PBS; format: physicochemical
Procedure, shortened: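 PBS sample ultracentrifuged; supernatant run on HPLC vs. 50 μM peptide in DMSO standard. Solubility = (PBS peak area / DMSO peak area) × 50 uM.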

| Structure (SMILES) | IC50 ([1]; read-out: beta-Catenin FP IC50) [nM] | Solubility [2] [µM] | Solubility ([2]; Solubility (uM)) [µM] | IC50 ([1]; beta-catenin, read-out: FP EC50) [nM] |
| --- | --- | --- | --- | --- |
| CC(=O)N1CCC[C@]12CC=CCCCC1(CCCC=CCCCCCC[C@@](C)(C(=O)N[C@@H](Cc3ccsc3)C(=O)N[C@@H](Cc3csc4ccccc34)C(=O)N[C@H](C(N)=O)[C@@H](C)O)NC(=O)[C@H](CC(C)C)NC(=O)[C@H](Cc3ccccc3)NC(=O)[C@H](C)NC(=O)[C@H](C)NC(=O)[C@H](CC(=O)O)NC(=O)[C@H](CC(=O)O)NC1=O)NC(=O)[C@H](CC(C)(C)C)NC(=O)[C@H](CC(=O)O)NC2=O (stereo partly drawn) [I-1191, Ac-PL3-Asp-Npg-B5-Asp-Asp-Ala-Ala-Phe-Leu-S8-3Thi-BztA-Thr-NH2] | 38.5 | 10 (≈ 18.5 µg/mL) |  |  |
| CC(=O)N1CCC[C@]12CC=CCCCC1(CCCC=CCCCCCCCC[C@@](C)(C(=O)N[C@@H](Cc3ccccc3Cl)C(=O)N[C@@H](Cc3csc4ccccc34)C(=O)N[C@H](C(N)=O)[C@@H](C)O)NC(=O)[C@H]([C@@H](C)O)NC(=O)[C@H](Cc3ccccc3)NC(=O)[C@H](C)NC(=O)[C@H](C)NC(=O)[C@H](CC(=O)O)NC(=O)[C@H](CC(=O)O)NC1=O)NC(=O)[C@H](CC(C)(C)C)NC(=O)[C@H](CC(=O)O)NC2=O (stereo partly drawn) [I-1262, Ac-PL3-Asp-Npg-B5-Asp-Asp-Ala-Ala-Phe-Thr-S10-2C1F-BztA-Thr-NH2] | 1120 |  | 49 (≈ 92.7 µg/mL) |  |
| CC(=O)N1CCC[C@]12CC=CCCCC1(CCCC=CCCCOC(=O)N3CC[C@@](C(=O)N[C@@H](Cc4ccccc4)C(=O)N[C@@H](Cc4csc5ccccc45)C(=O)N[C@@H](CCC(N)=O)C(N)=O)(C3)NC(=O)[C@H](CC(C)C)NC(=O)[C@H](Cc3ccccc3)NC(=O)[C@H](C)NC(=O)[C@H](C)NC(=O)[C@H]([C@@H](C)O)NC(=O)[C@H](CC(N)=O)NC1=O)NC(=O)[C@H](C)NC(=O)[C@H](CC(=O)O)NC2=O (stereo partly drawn) [I-1296, Ac-PL3-Asp-Ala-B5-Asn-Thr-Ala-Ala-Phe-Leu-PyrS2-Phe-BztA-Gln-NH2] | 3780 | 10 (≈ 18.4 µg/mL) |  | 3780 |
| CC(=O)N1CCC[C@]12CC=CCCCC1(CCCC=CCCCOC(=O)N3CC[C@@](C(=O)N[C@@H](Cc4ccccc4Cl)C(=O)N[C@@H](Cc4csc5ccccc45)C(=O)N[C@@H](CO)C(N)=O)(C3)NC(=O)[C@H]([C@@H](C)O)NC(=O)[C@H](Cc3ccccc3)NC(=O)[C@H](C)NC(=O)[C@H](CC(C)C)NC(=O)[C@H](CC(=O)O)NC(=O)[C@H](CC(=O)O)NC1=O)NC(=O)[C@H](Cc1ccccc1)NC(=O)[C@H](CC(=O)O)NC2=O (stereo partly drawn) [I-1156, Ac-PL3-Asp-Phe-B5-Asp-Asp-Leu-Ala-Phe-Thr-PyrS2-2C1F-BztA-Ser-NH2] | 14 |  | 48 (≈ 93.8 µg/mL) |  |
| CC(=O)N1CCC[C@]12CC=CCCCC1(CCCC=CCCCOC(=O)N3CC[C@@](C(=O)N[C@@H](Cc4ccsc4)C(=O)N[C@@H](Cc4csc5ccccc45)C(=O)N[C@@H](CCC(N)=O)C(N)=O)(C3)NC(=O)[C@H](CC(C)C)NC(=O)[C@H](Cc3ccccc3)NC(=O)[C@H](C)NC(=O)[C@H](C)NC(=O)[C@H](CC(=O)O)NC(=O)[C@H](CCO)NC1=O)NC(=O)[C@H](CC(C)(C)C)NC(=O)[C@H](CC(=O)O)NC2=O (stereo partly drawn) [I-1215, Ac-PL3-Asp-Npg-B5-Hse-Asp-Ala-Ala-Phe-Leu-PyrS2-3Thi-BztA-Gln-NH2] | 216 | 10 (≈ 19 µg/mL) |  |  |
| CC(=O)N1CCC[C@]12CC=CCCCC1(CCCC=CCCCOC(=O)N3CC[C@@](C(=O)N[C@@H](Cc4ccccc4)C(=O)N[C@@H](Cc4csc5ccccc45)C(=O)N[C@@H](CCC(N)=O)C(N)=O)(C3)NC(=O)[C@H](CC(C)C)NC(=O)[C@H](Cc3ccccc3)NC(=O)[C@H](C)NC(=O)[C@H](CCCCNC(C)C)NC(=O)[C@H]([C@@H](C)O)NC(=O)[C@H](CC(N)=O)NC1=O)NC(=O)[C@H](C)NC(=O)[C@H](CC(=O)O)NC2=O (stereo partly drawn) [I-1376, Ac-PL3-Asp-Ala-B5-Asn-Thr-iPrLys-Ala-Phe-Leu-PyrS2-Phe-BztA-Gln-NH2] | 4210 | 10 (≈ 19.4 µg/mL) |  |  |
| CC(=O)N1CCC[C@]12CC=CCCCC1(CCCC=CCCCOC(=O)N3CC[C@@](C(=O)N[C@@H](Cc4ccc(C#N)cc4)C(=O)N[C@@H](Cc4csc5ccccc45)C(=O)N[C@@H](CCC(N)=O)C(N)=O)(C3)NC(=O)[C@H](CC(C)C)NC(=O)[C@H](Cc3ccccc3)NC(=O)[C@H](C)NC(=O)[C@H](C)NC(=O)[C@H](CC(=O)O)NC(=O)[C@H](CC(=O)O)NC1=O)NC(=O)[C@H](CC(C)(C)C)NC(=O)[C@H](CC(=O)O)NC2=O (stereo partly drawn) [I-1205, Ac-PL3-Asp-Npg-B5-Asp-Asp-Ala-Ala-Phe-Leu-PyrS2-4CNF-BztA-Gln-NH2] | 987 | 50 (≈ 96.8 µg/mL) |  |  |
| CCCCCCCC(=O)N1CCC[C@]12CC=CCCCC1(CCCC=CCCCOC(=O)N3CC[C@@](C(=O)N[C@@H](Cc4ccccc4Cl)C(=O)N[C@@H](Cc4csc5ccccc45)C(=O)N[C@@H](C(N)=O)[C@H](C)O)(C3)NC(=O)[C@H](CC(N)=O)NC(=O)[C@H](Cc3ccccc3)NC(=O)[C@H](C)NC(=O)[C@H](C)NC(=O)[C@H](CC(=O)O)NC(=O)[C@H](CC(=O)O)NC1=O)NC(=O)[C@H](CC(C)(C)C)NC(=O)[C@H](CC(=O)O)NC2=O (stereo partly drawn) [I-1252, Oct-PL3-Asp-Npg-B5-Asp-Asp-Ala-Ala-Phe-Asn-PyrS2-2C1F-BztA-dThr-NH2] | 546 |  | 44 (≈ 88.2 µg/mL) |  |
| CC(=O)N1CCC[C@]12CC=CCCCC1(CCCC=CCCCOC(=O)N3CC[C@@](C(=O)N[C@@H](Cc4ccccc4)C(=O)N[C@@H](Cc4csc5ccccc45)C(=O)N[C@@H](CCC(N)=O)C(N)=O)(C3)NC(=O)[C@H](CC(C)C)NC(=O)[C@H](Cc3ccccc3)NC(=O)[C@H](C)NC(=O)[C@H](CCCCNC(C)C)NC(=O)[C@H]([C@@H](C)O)NC(=O)[C@H](CC(=O)O)NC1=O)NC(=O)[C@H](C)NC(=O)[C@H](CC(N)=O)NC2=O (stereo partly drawn) [I-1382, Ac-PL3-Asn-Ala-B5-Asp-Thr-iPrLys-Ala-Phe-Leu-PyrS2-Phe-BztA-Gln-NH2] | 2850 | 10 (≈ 19.4 µg/mL) |  |  |
| CC(=O)N1CCC[C@]12CC=CCCCC1(CCCC=CCCCOC(=O)N3CC[C@@](C(=O)N[C@@H](Cc4ccccc4)C(=O)N[C@@H](Cc4csc5ccccc45)C(=O)N[C@@H](CCCCN)C(N)=O)(C3)NC(=O)[C@H](CC(C)C)NC(=O)[C@H](Cc3ccccc3)NC(=O)[C@H](C)NC(=O)[C@H](CCCCNC(C)C)NC(=O)[C@H]([C@@H](C)O)NC(=O)[C@H](CC(=O)O)NC1=O)NC(=O)[C@H](C)NC(=O)[C@H](CC(N)=O)NC2=O (stereo partly drawn) [I-1383, Ac-PL3-Asn-Ala-B5-Asp-Thr-iPrLys-Ala-Phe-Leu-PyrS2-Phe-BztA-Lys-NH2] | 1660 | 10 (≈ 19.4 µg/mL) |  |  |
| CC(=O)N1CCC[C@H]1C(=O)N[C@@H](CC(=O)O)C(=O)N[C@@H](CC(C)(C)C)C(=O)N[C@]1(C)CCCC=CCCCOC(=O)N2CC[C@@](C(=O)N[C@@H](Cc3ccsc3)C(=O)N[C@@H](Cc3csc4ccccc34)C(=O)N[C@@H](CCC(N)=O)C(N)=O)(C2)NC(=O)[C@H](CC(N)=O)NC(=O)[C@H](Cc2ccccc2)NC(=O)[C@H](C)NC(=O)[C@H](C)NC(=O)[C@H](CC(=O)O)NC(=O)[C@H](CC(=O)O)NC1=O [I-1182, Ac-Pro-Asp-Npg-R5-Asp-Asp-Ala-Ala-Phe-Asn-PyrS2-3Thi-BztA-Gln-NH2] | 144 |  | 48 (≈ 88.9 µg/mL) |  |
| CC(=O)N1CCC[C@]12CC=CCCCC1(CCCC=CCCCOC(=O)N3CC[C@@](C(=O)N[C@@H](Cc4cccc(C#N)c4)C(=O)N[C@@H](Cc4csc5ccccc45)C(=O)N[C@@H](CCC(N)=O)C(N)=O)(C3)NC(=O)[C@H](CC(C)C)NC(=O)[C@H](Cc3ccccc3)NC(=O)[C@H](C)NC(=O)[C@H](C)NC(=O)[C@H](CC(=O)O)NC(=O)[C@H](CC(=O)O)NC1=O)NC(=O)[C@H](CC(C)(C)C)NC(=O)[C@H](CC(=O)O)NC2=O (stereo partly drawn) [I-1204, Ac-PL3-Asp-Npg-B5-Asp-Asp-Ala-Ala-Phe-Leu-PyrS2-3CNF-BztA-Gln-NH2] | 81 | 50 (≈ 96.8 µg/mL) |  |  |
| CC(=O)N1CCC[C@]12CC=CCCCC1(CCCC=CCCCCCC[C@@](C)(C(=O)N[C@@H](Cc3ccccc3Cl)C(=O)N[C@@H](Cc3csc4ccccc34)C(=O)N[C@@H](Cc3c[nH]cn3)C(N)=O)NC(=O)[C@H](CC(C)C)NC(=O)[C@H](Cc3ccccc3)NC(=O)[C@H](C)NC(=O)[C@H](C)NC(=O)[C@H](CC(=O)O)NC(=O)[C@H](CC(=O)O)NC1=O)NC(=O)[C@H](CC(C)(C)C)NC(=O)[C@H](CC(=O)O)NC2=O (stereo partly drawn) [I-1194, Ac-PL3-Asp-Npg-B5-Asp-Asp-Ala-Ala-Phe-Leu-S8-2C1F-BztA-His-NH2] | 66.5 | 10 (≈ 19.1 µg/mL) |  |  |
| CC(=O)N1CCC[C@H]1C(=O)N[C@@H](CC(=O)O)C(=O)N[C@@H](CC(C)(C)C)C(=O)N[C@]1(C)CCCC=CCCCOC(=O)N2CC[C@@](C(=O)N[C@@H](Cc3ccccc3Cl)C(=O)N[C@@H](Cc3csc4ccccc34)C(=O)N[C@@H](CCC(N)=O)C(N)=O)(C2)NC(=O)[C@H](CC(N)=O)NC(=O)[C@H](Cc2ccccc2)NC(=O)[C@H](C)NC(=O)[C@H](C)NC(=O)[C@H](CC(=O)O)NC(=O)[C@H](CC(=O)O)NC1=O [I-1183, Ac-Pro-Asp-Npg-R5-Asp-Asp-Ala-Ala-Phe-Asn-PyrS2-2C1F-BztA-Gln-NH2] | 409 | 50 (≈ 94 µg/mL) |  |  |
